According to ChEMBL document CHEMBL1201862, “PubChem BioAssay data set” (2004):
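How tested: cells in 96-well plates exposed to compound for 48 hours at five concentrations. Abbreviation: GI50, concentration required for 50% inhibition of growth.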 Calls of active or inactive are those of the source. Rule as the data show it: active = GI50 up to about 1.1 µM and inactive = higher.

Experiments:
Test in all cases: NCI-60 cell line screen, 48 h
MOLT-4 = system: MOLT-4
NCI-H522 = system: NCI-H522
HCT-15 = system: HCT-15
MDA-MB-231 = system: MDA-MB-231
HCC 2998 = system: HCC 2998
SF-295 = system: SF-295
LOX IMVI = system: LOX IMVI
CAKI-1 = system: CAKI-1
Hs-578T = system: Hs-578T
NCI-H23 = system: NCI-H23
U-251 = system: U-251
SN12C = system: SN12C
OVCAR-5 = system: OVCAR-5
Malme-3M = system: Malme-3M
SF-268 = system: SF-268
HCT-116 = system: HCT-116
EKVX = system: EKVX
NCI-H226 = system: NCI-H226
A498 = system: A498
HL-60 = system: HL-60

SMILES	GI50 (MOLT-4)	GI50 (NCI-H522)	GI50 (HCT-15) [µM]	GI50 (MDA-MB-231)	GI50 (HCC 2998)	GI50 (SF-295)	GI50 (LOX IMVI)	GI50 (CAKI-1)	GI50 (Hs-578T)	GI50 (NCI-H23)	GI50 (U-251)	GI50 (SN12C)	GI50 (OVCAR-5)	GI50 (Malme-3M)	GI50 (SF-268)	GI50 (HCT-116)	GI50 (EKVX)	GI50 (NCI-H226)	GI50 (A498)	GI50 (HL-60)
C=C1C(=O)O[C@H]2C1C[C@@H](O)[C@@]1(C)OC1CC[C@@]1(C)O[C@H]21 (stereo not given in full)	5.94 µM (inactive)	5.62 µM (inactive)	14.9	19.1 µM (inactive)	15.2 µM (inactive)	99.1 µM (inactive)	13.2 µM (inactive)	16.7 µM (inactive)	28.6 µM (inactive)	17 µM (inactive)	> 100 µM (inactive)	20.1 µM (inactive)	28.7 µM (inactive)	11.7 µM (inactive)	48.1 µM (inactive)	17.7 µM (inactive)	15.8 µM (inactive)			
CCOP(=O)(OCC)C1CC(O)C(=O)N1 (stereo not given)	> 100 µM (inactive)		> 100	> 100 µM (inactive)		> 100 µM (inactive)	> 100 µM (inactive)		> 100 µM (inactive)	> 100 µM (inactive)	> 100 µM (inactive)	> 100 µM (inactive)	> 100 µM (inactive)	> 100 µM (inactive)	> 100 µM (inactive)	> 100 µM (inactive)	> 100 µM (inactive)	> 100 µM (inactive)	> 100 µM (inactive)	
CSC1=N/C(=C\c2cccs2)C(=O)N1CN1CCOCC1	34.1 µM (inactive)	30.1 µM (inactive)	38.1	71.1 µM (inactive)		> 100 µM (inactive)	33.1 µM (inactive)		51.6 µM (inactive)	> 100 µM (inactive)	85.5 µM (inactive)	5.2 µM (inactive)	> 100 µM (inactive)	44.7 µM (inactive)	42.3 µM (inactive)	31.3 µM (inactive)	40.6 µM (inactive)	31.1 µM (inactive)	64.9 µM (inactive)	0.0465 µM (active)
CNC(=O)C1(N)c2ccccc2C=Cc2ccccc21	> 100 µM (inactive)	> 100 µM (inactive)	> 100	> 100 µM (inactive)		> 100 µM (inactive)	> 100 µM (inactive)	> 100 µM (inactive)	> 100 µM (inactive)	> 100 µM (inactive)	> 100 µM (inactive)	> 100 µM (inactive)	> 100 µM (inactive)	> 100 µM (inactive)	> 100 µM (inactive)	> 100 µM (inactive)	> 100 µM (inactive)	> 100 µM (inactive)	> 100 µM (inactive)	> 100 µM (inactive)
